This note sets out measurements from article PMC12300231, “Ferroptosis Among the Antiproliferative Pathways Activated by a Lipophilic Ruthenium(III) Complex as a Candidate Drug for Triple-Negative Breast Cancer” (Pharmaceutics, 2025).

One test relates to MDA-MB-231 cells. The test is described as follows: Mitochondria morphological analysis by confocal microscopy (MitoTracker Red). The class given is cell-based, Human. As to conditions: MDA-MB-231, 48 h, cDDP 10 µM or Erastin 10 µM, vs untreated cells. The protocol:
Morphological changes in the mitochondria of MDA-MB-231 cells after treatments in vitro were determined using the MitoTracker Red CMXRos selective probe (Ex\Em 579/599 nm). Briefly, 1.5 × 10^4 cells were seeded in a four-well µ-Slide and incubated for 48 h. Then, cells were treated with the IC50 concentration of PalmiPyRu, cDDP (10 µM) or Erastin (10 µM), respectively, for a further 48 h. After incubations, cells were treated with FBS-free medium containing 100 nM MitoTracker at 37 °C for 20 min. To label the nuclei, a DAPI (Ex/Em 358/461 nm) solution (1:1000) was used at room temperature for 10 min of incubation. Fluorescence images were captured using a confocal microscope (Zeiss LSM 900 Airyscan 2) with a 63× magnification (oil-immersion objective).

For the next test, the system named is BT-549. The test is described as follows: Cell survival index (MTT assay plus automated cell count), IC50. The class given is cell-based, Human. As to conditions: BT-549 TNBC cells, 48 h of incubation, mean ± SEM (n = 15). The protocol: (§1) The antiproliferative activity was evaluated by estimating a “cell survival index” through targeted bioscreens, which joins cell viability assessment (by the MTT functional assay) with automated cell count (quantitative assay by automatic cell counter). Specifically, the “cell survival index” is calculated as the arithmetic average between the percentage values derived from the MTT assay and automated cell counting. For in vitro treatments, TNBC cell lines (MDA-MB-231, Hs 578T and BT-549) were seeded into 96-well culture plates at a density of 10^4 cells/well and allowed to grow for 24 h. The culture medium was then replaced with fresh medium, and the cells were treated with PalmiPyRu at concentrations ranging from 5 to 150 μM for different times, depending on the type of experiment. Cisplatin (cDDP) was used as a reference drug (positive control).
(§2) The same experimental setup in vitro was applied to assess the biocompatibility of PalmiPyRu on healthy control cell lines (HDFas, HHFKs, HaCaTs and […]). Cell viability was measured using the MTT assay (Sigma, Milan, Italy), which evaluates mitochondrial redox capacity to convert dissolved MTT into insoluble purple formazan. Briefly, after treatments, the medium was removed, and cells were incubated with 20 μL/well of MTT solution (5 mg/mL) for 1 h at 37 °C in a humidified 5% CO2 incubator. […] Finally, absorbance was measured at 550 nm using a microplate reader (ThermoFisher, Waltham, MA, USA). Total cell counting was determined using the TC20 automated cell counter (Bio-Rad, Milan, Italy), which provides accurate and reproducible total cell counts and a live/dead ratio in a single step using a specific dye exclusion assay (Trypan Blue). […] The mixture was loaded into disposable slide chamber and analyzed. The instrument provided a total cell count (cells/mL), live cell count and percent viability, automatically adjusting for dilution if Trypan Blue was detected. […]
(§3) All subsequent in vitro experiments were performed using PalmiPyRu IC50 concentrations, calculated as previously described.
In general terms: Tetrazolium dyes change colour on reduction, which living cells bring about.

In the next test the test system is Hs578T. The test is described as above. The class given is cell-based, Human. The following applies: Hs578T TNBC cells, 48 h of incubation, mean ± SEM (n = 15). The procedure:
as §1, §2, §3

The test system of another test is MDA-MB-231. The description is as above. As to conditions: MDA-MB-231 TNBC cells, 48 h of incubation, mean ± SEM (n = 15). The format is cell-based, Human. The procedure:
as §1, §2, §3

Another test relates to HDFa. The test is described as follows: Cell survival index, biocompatibility on healthy cells. The format is cell-based. The following applies: 48 h of incubation, mean ± SEM (n = 15). The protocol:
as §1, §2, §3

The subject of a further test is HHFK. Described as above. The class given is cell-based. As to conditions: 48 h of incubation, mean ± SEM (n = 15). The protocol:
as §1, §2, §3

For another test, the system named is MCF-10A. The test is described as above. The class given is cell-based. As to conditions: MCF-10A healthy cells, 48 h of incubation, mean ± SEM (n = 15). The protocol:
as §1, §2, §3

The next test deals with HaCaT. Described as above. The class given is cell-based, Human. The following applies: 48 h of incubation, mean ± SEM (n = 15). The procedure: The antiproliferative activity was evaluated by estimating a “cell survival index” through targeted bioscreens, which joins cell viability assessment (by the MTT functional assay) with automated cell count (quantitative assay by automatic cell counter). Specifically, the “cell survival index” is calculated as the arithmetic average between the percentage values derived from the MTT assay and automated cell counting. For in vitro treatments, TNBC cell lines (MDA-MB-231, Hs 578T and BT-549) were seeded into 96-well culture plates at a density of 10^4 cells/well and allowed to grow for 24 h. […]
as §2, with “formazan.” for “formazan. Briefly, after treatments, the medium was removed, and cells were incubated with 20 μL/well of MTT solution (5 mg/mL) for 1 h at 37 °C in a humidified 5% CO2 incubator.”, “analyzed.” for “analyzed. The instrument provided a total cell count (cells/mL), live cell count and percent viability, automatically adjusting for dilution if Trypan Blue was detected.”

For `CCOc1ccccc1-n1c(C(C)N2CCN(C(=O)COc3ccc(Cl)cc3)CC2)nc2ccccc2c1=O` (stereo not drawn) [Erastin], the “Mitochondrial red fluorescent signal (MitoTracker)” value with MDA-MB-231 cells is listed as “lowered the mitochondrial fluorescent signal”.
Broadly, the IC50 is the point on the concentration scale where inhibition reaches its midpoint. Turning to `[NH2][Pt]([NH2])([Cl])[Cl]` [cDDP, cisplatin], the IC50 in the test on BT-549 turned out to be 15 ± 2 µM; with Hs578T, 20 ± 4 µM; in the test with MDA-MB-231, 11 ± 3 µM; in the test with HDFa it was 72 ± 4 µM; with HHFK, 93 ± 3 µM; in the test on MCF-10A, 88 ± 3 µM. In addition, in the test with HaCaT, the IC50 was found to be 50 ± 3 µM. The “Mitochondrial red fluorescent signal (MitoTracker)” value with MDA-MB-231 cells is “significantly reduced”.
